Reference: ChEMBL document CHEMBL1201862, “PubChem BioAssay data set” (2004)
Activity calls are given as the source filed them.

Experiments:
SUMO-activating enzyme [1] = biological target: T1, SUMO-activating enzyme (Homo sapiens, UniProt Q9UBT2); assay: SUMOylation inhibitor hit validation, confirmation, SUMOylation inhibitor project, biochemical, AlphaScreen (AID 2018); assay type: functional
SUMO-activating enzyme [2] = biological target: T1, SUMO-activating enzyme; assay: inhibitors of in vitro SUMOylation cascade, primary screen, biochemical, HTRF, uHTS (AID 2006); assay type: protein-complex assay
[3] = biological target: T2, Calpain-2 catalytic subunit (Sus scrofa, UniProt P43367); assay: pig calpain II inhibitor potency, dose response, biochemical, fluorogenic peptide substrate (AID 1420); assay type: functional
T2 sequence (P43367 whole entry): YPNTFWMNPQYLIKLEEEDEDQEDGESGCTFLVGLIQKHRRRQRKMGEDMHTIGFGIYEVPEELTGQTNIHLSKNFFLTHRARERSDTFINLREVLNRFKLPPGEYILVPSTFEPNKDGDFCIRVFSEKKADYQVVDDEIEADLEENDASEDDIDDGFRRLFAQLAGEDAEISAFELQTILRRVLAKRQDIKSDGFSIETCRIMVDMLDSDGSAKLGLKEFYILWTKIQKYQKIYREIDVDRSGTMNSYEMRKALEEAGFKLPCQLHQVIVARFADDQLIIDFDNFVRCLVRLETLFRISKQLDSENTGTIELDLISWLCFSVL

[4] = biological target: Bifunctional protein GlmU (Mycobacterium tuberculosis, UniProt P9WMN3); assay: Inhibitors of Mycobacterial Glucosamine-1-phosphate acetyl transferase (GlmU). Secondary screen.; design: species or system Mycobacterium tuberculosis H37Rv
[5] = biological target: Induced myeloid leukemia cell differentiation protein Mcl-1 (Homo sapiens, UniProt Q07820); assay type: functional
Caspase-6 = biological target: T3, Caspase-6 (Homo sapiens, UniProt P55212); assay: human caspase-6 inhibitors, dose response, biochemical, VEID-R110 fluorescence, cherry-pick (AID 720632)
T3 sequence (P55212 whole entry): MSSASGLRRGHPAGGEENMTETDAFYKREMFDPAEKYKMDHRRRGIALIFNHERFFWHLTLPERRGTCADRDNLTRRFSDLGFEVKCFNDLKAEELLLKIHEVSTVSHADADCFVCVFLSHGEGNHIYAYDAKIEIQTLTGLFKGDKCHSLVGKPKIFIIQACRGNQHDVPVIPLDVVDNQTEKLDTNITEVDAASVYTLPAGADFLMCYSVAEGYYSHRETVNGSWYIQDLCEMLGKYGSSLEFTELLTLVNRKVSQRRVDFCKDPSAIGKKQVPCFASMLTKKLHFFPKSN

Vero = assay: cytotoxicity of synthesized analogs in Vero cells, SAR follow-up, cytotoxicity control for West Nile virus antiviral project, cell-based, set II (AID 2402); assay type: functional; conditions: Chlorocebus sabaeus
[6] = Concentration-dependent survival of SW480 colon cancer line, luminescence detection with CellTiter-Glo, half-maximal inhibitory concentration (AID 1117338); assay type: functional
[7] = RKO cell viability reduction, dose response, CellTiter-Glo luminescence (AID 1117322); assay type: functional
[8] = cytotoxicity toward HCT116 cells – cell-based, CellTiter-Glo luminescence, IC50, dose response (AID 1117332); assay type: functional; conditions: HCT-116
[9] = SNU-C1 cell viability reduction, dose response, CellTiter-Glo luminescence (AID 1117323); assay type: functional, cell-based
[10] = cytotoxicity toward Colo320 cells – cell-based, CellTiter-Glo luminescence, IC50, dose response (AID 1117334); assay type: functional; conditions: COLO 320
[11] = cytotoxicity toward HT-29 cells – cell-based, CellTiter-Glo luminescence, IC50, dose response (AID 1117330); assay type: functional
[12] = CellTiter-Glo luminescent dose response of DLD-1 viability loss (AID 1117352); assay type: functional
[13] = HCT116 cell viability decrease, GSK3B pretreatment – CellTiter-Glo, IC50, dose response (AID 1117339); assay type: functional; conditions: HCT-116
[14] = biological target: Diphosphomevalonate decarboxylase (Streptococcus pneumoniae serotype 2 (strain D39 / NCTC 7466), UniProt Q9FD53); assay: S. pneumoniae DPM-DC inhibition retest, confirmation, biochemical, cuvette format, coupled NADH fluorescence (AID 1028); assay type: functional
[15] = growth suppression of PTEN-null colon cells, dose response, cell-based, HCT116 PTEN knockout (AID 1047); assay type: functional;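 further: HCT116 colon tumor cells with PTEN knocked out; cells exposed to compound for 60 hours before readout; potency for loss of cell viability measured by luminescence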
[16] = growth suppression of beta-catenin-knockout colon cells, dose response, cell-based, HCT116, human colon tumor (AID 1045); assay type: functional;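 further: HCT116 colon tumor cells with beta catenin knocked out; cells exposed to compound for 60 hours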
[17] = biological target: T4, Mannose-6-phosphate isomerase (Homo sapiens, UniProt P34949); assay: human PMI inhibitors, high substrate, primary screen, biochemical, fluorescence intensity, high mannose 6-phosphate (AID 1220)
T4 sequence (P34949 whole entry): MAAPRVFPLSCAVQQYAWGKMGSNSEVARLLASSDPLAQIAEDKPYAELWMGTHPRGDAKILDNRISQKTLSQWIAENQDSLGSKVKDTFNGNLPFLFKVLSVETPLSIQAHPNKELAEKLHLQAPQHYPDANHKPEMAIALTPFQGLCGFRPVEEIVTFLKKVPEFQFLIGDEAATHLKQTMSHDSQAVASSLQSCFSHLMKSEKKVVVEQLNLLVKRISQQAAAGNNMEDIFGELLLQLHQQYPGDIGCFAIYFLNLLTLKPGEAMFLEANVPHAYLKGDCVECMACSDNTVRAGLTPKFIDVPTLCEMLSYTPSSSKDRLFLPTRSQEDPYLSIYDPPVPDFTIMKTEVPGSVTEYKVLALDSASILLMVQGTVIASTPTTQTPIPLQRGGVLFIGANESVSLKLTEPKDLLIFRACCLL

Hexokinase HKDC1 = biological target: T5, Hexokinase HKDC1 (Homo sapiens, UniProt Q2TB90); assay: HKDC1 hexokinase inhibitors, dose response, biochemical, W721R variant (AID 504729); assay type: functional
T5 sequence (Q2TB90 whole entry): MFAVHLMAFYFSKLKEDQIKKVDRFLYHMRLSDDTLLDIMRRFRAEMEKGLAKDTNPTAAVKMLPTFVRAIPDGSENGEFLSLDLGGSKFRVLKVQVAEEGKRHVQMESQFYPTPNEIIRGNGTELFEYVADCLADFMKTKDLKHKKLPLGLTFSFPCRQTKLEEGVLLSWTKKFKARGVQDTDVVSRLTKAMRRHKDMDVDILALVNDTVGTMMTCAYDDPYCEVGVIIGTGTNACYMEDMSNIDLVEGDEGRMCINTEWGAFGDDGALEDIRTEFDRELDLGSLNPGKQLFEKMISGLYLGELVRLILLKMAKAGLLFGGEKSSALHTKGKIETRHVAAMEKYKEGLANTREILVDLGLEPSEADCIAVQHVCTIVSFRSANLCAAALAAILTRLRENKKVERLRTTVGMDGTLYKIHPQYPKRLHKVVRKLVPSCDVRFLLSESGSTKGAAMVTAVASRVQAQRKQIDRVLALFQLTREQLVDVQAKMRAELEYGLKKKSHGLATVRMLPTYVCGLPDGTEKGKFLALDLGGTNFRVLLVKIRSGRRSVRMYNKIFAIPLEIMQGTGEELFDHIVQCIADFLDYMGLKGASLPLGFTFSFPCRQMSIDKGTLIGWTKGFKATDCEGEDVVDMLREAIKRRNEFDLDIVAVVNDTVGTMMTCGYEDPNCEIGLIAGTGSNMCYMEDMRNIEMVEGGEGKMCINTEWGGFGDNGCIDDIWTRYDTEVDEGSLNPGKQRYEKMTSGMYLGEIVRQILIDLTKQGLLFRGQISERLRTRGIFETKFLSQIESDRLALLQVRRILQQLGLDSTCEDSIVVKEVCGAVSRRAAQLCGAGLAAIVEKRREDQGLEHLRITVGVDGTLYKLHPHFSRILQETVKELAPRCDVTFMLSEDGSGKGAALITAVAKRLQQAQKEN

HEK293 = assay: inhibitors of LMP1-driven NF-kB reporter, dose response, cell-based, HEK293, luciferase, cherry-pick (AID 588343); assay type: functional; conditions: Homo sapiens
[18] = biological target: DNA (cytosine-5)-methyltransferase 1 (Homo sapiens, UniProt P26358); assay: DNMT1 methyltransferase inhibitors, confirmation, biochemical, fluorescent molecular beacon (AID 602386); assay type: functional
[19] = biological target: Hepatocyte nuclear factor 4-alpha (Homo sapiens, UniProt P41235); assay type: functional, cell-based;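 further: biochemical luminescence-based dose-response counterscreen measuring inhibition of HNF4 dimerization, run alongside a screen for blockers of ABHD5–perilipin-5 interaction; split luciferase complementation of HNF4 fusion proteins in cell lysate measuring dimerization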
[20] = Artemis endonuclease inhibitor potency, dose response, biochemical, fluorescence intensity (AID 720701); assay type: functional;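 further: Artemis endonuclease enzyme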
Transthyretin = Transthyretin (Homo sapiens, UniProt P02766); assay: Luminescence-based cell-based high throughput dose response assay to identify activators of Transthyretin (TTR) transcription.; assay type: functional

T1 sequence (Q9UBE0 whole entry): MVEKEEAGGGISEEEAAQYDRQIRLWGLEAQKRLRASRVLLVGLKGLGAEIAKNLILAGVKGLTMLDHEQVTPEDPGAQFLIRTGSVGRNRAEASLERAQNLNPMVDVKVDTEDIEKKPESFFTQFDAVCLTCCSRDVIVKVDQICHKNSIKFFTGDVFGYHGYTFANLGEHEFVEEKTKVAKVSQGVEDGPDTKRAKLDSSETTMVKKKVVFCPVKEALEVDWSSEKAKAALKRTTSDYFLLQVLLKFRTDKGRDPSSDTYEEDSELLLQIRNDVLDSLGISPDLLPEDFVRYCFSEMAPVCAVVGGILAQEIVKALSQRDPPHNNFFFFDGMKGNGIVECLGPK
T1 sequence (Q9UBT2 whole entry): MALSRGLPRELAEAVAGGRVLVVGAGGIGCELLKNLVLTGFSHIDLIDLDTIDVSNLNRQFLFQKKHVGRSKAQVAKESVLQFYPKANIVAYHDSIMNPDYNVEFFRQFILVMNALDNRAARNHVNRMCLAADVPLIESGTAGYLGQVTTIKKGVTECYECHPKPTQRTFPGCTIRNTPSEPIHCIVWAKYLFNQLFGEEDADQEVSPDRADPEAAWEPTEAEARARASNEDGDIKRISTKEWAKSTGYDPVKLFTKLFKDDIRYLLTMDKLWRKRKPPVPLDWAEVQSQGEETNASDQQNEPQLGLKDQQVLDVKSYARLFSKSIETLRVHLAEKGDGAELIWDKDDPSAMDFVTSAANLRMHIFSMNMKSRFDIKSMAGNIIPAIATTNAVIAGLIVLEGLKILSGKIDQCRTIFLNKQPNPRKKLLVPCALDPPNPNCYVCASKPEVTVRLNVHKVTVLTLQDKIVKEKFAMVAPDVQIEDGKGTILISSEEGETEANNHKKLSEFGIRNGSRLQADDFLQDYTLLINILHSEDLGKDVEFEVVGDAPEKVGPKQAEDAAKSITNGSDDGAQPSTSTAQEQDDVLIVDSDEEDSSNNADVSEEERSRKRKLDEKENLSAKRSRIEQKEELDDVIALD
Sequence of Bifunctional protein GlmU (P9WMN3 whole entry): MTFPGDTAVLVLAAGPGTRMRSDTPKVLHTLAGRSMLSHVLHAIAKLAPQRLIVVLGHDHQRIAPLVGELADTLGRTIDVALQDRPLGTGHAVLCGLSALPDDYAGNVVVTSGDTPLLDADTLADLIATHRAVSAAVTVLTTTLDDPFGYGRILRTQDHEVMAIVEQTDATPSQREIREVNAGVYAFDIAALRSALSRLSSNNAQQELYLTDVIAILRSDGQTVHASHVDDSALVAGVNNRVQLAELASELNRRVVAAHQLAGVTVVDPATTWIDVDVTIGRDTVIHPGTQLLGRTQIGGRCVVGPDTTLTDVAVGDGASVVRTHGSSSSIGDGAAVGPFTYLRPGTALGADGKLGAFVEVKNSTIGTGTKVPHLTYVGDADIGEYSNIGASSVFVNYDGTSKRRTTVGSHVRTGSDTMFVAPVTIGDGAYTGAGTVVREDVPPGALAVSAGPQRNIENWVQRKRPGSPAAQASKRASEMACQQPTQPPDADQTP
Sequence of DNA (cytosine-5)-methyltransferase 1 (P26358 whole entry, the tested form may be a part): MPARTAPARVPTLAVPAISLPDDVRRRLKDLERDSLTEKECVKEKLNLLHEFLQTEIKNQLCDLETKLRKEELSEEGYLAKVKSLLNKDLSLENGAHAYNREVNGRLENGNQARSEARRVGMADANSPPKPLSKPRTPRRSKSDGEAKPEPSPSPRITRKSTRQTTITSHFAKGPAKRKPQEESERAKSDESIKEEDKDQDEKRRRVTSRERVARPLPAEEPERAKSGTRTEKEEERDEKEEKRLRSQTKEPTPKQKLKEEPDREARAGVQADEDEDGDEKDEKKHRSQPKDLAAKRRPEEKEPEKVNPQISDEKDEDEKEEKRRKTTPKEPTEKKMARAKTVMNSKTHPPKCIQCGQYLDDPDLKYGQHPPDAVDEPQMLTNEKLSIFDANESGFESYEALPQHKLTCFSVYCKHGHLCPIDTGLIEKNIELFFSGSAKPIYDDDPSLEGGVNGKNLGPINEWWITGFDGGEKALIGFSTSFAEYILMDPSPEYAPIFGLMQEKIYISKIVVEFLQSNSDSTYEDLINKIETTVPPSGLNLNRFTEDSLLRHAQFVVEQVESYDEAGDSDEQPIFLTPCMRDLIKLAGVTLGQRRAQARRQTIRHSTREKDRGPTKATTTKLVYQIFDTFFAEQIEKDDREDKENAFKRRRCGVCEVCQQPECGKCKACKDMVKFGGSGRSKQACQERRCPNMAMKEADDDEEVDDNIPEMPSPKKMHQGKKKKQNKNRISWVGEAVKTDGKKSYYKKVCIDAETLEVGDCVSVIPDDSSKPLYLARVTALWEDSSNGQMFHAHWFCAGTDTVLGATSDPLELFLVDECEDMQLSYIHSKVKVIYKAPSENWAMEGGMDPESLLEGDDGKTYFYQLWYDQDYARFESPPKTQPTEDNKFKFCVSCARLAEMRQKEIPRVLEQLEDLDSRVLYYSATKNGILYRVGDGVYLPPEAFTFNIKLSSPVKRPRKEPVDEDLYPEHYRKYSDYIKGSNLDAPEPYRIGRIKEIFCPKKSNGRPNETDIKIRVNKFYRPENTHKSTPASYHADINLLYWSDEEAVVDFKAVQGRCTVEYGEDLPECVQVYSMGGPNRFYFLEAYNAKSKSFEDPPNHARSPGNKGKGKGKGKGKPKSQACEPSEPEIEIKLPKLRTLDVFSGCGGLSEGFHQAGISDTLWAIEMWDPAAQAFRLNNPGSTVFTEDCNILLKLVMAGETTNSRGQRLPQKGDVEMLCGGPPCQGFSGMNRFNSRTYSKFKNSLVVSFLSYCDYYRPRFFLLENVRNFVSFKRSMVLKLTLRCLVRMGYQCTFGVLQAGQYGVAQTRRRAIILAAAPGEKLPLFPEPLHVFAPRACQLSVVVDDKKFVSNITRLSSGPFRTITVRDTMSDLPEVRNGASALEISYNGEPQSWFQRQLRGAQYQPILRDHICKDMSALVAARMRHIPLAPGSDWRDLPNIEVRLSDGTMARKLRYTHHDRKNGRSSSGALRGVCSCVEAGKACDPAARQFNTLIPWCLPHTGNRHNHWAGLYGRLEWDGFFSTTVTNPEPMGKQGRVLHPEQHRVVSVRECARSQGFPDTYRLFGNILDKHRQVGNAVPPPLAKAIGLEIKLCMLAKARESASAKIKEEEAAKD
Sequence of Hepatocyte nuclear factor 4-alpha (P41235 whole entry, the tested form may be a part): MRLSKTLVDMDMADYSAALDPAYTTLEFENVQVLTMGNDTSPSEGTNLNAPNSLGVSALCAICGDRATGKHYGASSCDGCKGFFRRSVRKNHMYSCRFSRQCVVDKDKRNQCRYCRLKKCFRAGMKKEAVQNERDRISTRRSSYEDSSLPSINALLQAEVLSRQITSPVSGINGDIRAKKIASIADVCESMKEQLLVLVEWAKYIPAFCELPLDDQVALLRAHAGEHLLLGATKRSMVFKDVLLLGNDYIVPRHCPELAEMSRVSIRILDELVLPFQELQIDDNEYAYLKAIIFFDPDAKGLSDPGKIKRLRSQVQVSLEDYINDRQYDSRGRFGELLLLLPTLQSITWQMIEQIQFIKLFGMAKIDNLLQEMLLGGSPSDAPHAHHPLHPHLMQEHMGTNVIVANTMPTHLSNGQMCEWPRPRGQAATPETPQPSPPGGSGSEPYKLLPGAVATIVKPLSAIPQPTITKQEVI
Sequence of Induced myeloid leukemia cell differentiation protein Mcl-1 (Q07820 whole entry): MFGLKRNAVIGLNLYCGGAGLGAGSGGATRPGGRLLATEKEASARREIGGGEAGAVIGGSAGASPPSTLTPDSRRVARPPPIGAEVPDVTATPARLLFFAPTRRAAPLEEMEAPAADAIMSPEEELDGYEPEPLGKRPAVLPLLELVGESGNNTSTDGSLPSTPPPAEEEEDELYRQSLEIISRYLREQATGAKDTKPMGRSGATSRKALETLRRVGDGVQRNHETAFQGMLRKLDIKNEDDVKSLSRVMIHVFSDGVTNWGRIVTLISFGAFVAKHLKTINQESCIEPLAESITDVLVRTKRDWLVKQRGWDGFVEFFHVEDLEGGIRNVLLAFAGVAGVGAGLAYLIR
Sequence of Diphosphomevalonate decarboxylase (Q9FD53 whole entry): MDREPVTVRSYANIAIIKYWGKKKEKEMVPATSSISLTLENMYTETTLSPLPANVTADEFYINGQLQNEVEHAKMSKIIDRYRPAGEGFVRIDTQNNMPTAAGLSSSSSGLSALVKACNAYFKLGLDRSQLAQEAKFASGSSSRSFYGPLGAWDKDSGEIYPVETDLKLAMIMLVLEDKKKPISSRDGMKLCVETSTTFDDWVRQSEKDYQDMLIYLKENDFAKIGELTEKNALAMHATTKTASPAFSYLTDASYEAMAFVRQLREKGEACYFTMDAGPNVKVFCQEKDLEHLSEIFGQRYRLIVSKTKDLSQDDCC

O=C(O)c1cccc(Cn2c(Cl)c(/C=N/NC(=O)c3cc4ccccc4cc3O)sc2=O)c1
IC50 (SUMO-activating enzyme [1]): 1.86 µM (active)
IC50 (SUMO-activating enzyme [2]): 24.1 µM (active)
IC50 [3]: > 50 µM (not active)
IC50 [4]: 134 µM (active)
IC50 [5]: 3.74 µM (active)
AC50 (Caspase-6): 18.1 µM (active)

OC1c2c(F)cccc2N=C2CCCN21 (stereo unspecified)
CC50 (Vero): > 200 µM (active)

O=C(Nc1ccc(Br)cc1)c1cc(Br)c(Br)s1 [TIBROFAN]
IC50 [6]: 0.123 µM (active)
IC50 [7]: 0.431 µM (active)
IC50 [8]: 0.541 µM (active)
IC50 [9]: 1.1 µM (active)
IC50 [10]: 0.018 µM (active)
IC50 [11]: 0.52 µM (active)
IC50 [12]: 0.335 µM (active)
IC50 [13]: 0.342 µM (active)

Cc1ccc(-n2sc3ccccc3c2=O)cc1C(=O)N1CCCCC1
IC50 [14]: 19.7 µM (active)

Cc1oc2c(c1C(=O)c1ccc(Cl)cc1)C(=O)C(=O)c1ccccc1-2
EC50 [15]: 2.63 µM (active)
IC50 [3]: < 0.4 µM (not active)
EC50 [16]: 2.36 µM (active)
IC50 [17]: > 50 µM (not active)
IC50 (Hexokinase HKDC1): 8.83 µM (active)
AC50 (HEK293): 11.7 µM (active)
IC50 [18]: 6.05 µM (active)
IC50 [19]: 3.58 µM (active)
IC50 [20]: 1.12 µM (active)

Cc1ccc(/C=N/NC(=O)c2csc(C)c2)o1
EC50 (Transthyretin): > 167 µM (inactive)
